Legend:
[1] = system: primary rat neuronal-glial cell cultures; assay: Seahorse assay (OCR/ECAR), acute 1 h nutrient pre-incubation, resting or seizure-like conditions; format: cell-based; conditions: 0.25 mM and 1 mM pyruvate in low Mg2+ medium vs low Mg2+ medium without pyruvate
Protocol: A Seahorse assay was performed on primary rat neuronal-glial cell cultures to determine the impact of pyruvate and citric acid on glycolytic rates and lactate delivery, mitochondrial respiration and total (glycolytic and mitochondrial) ATP production.
Rat cortical cells were isolated from embryonic day 18 embryos using a combination of enzymatic and mechanical dissociation of brain cortical rat tissue. Immediately after dissociation, the cells were seeded at a density of 500′000 cells per mL in 96-well plates and grown at 37° C. for two weeks from day in vitro (DIV) 0 until DIV14 in Neurobasal medium supplemented with 2% (v/v) B27, 0.8 mM Magnesium (Mg2+), 25 mM glucose and 1% (v/v) Penicillin/Streptomycin. During this time neuronal axons grew out and formed synaptic contacts. In addition, glial cells, foremost astrocytes, grew and formed contacts with neurons. The incubation in 25 mM glucose accelerated the differentiation and network growth of neurons.
From DIV14 until DIV17, the cells were incubated in Neurobasal medium supplemented with 2% (v/v) B27, 0.8 mM Mg2+, 5 mM glucose and 1% (v/v) Penicillin/Streptomycin. The switch from high to low glucose was done to approach the low intracerebral glucose concentration of the human brain and create a more physiological metabolic environment.
The switch from 5 mM to 1 mM glucose matched the glucose concentrations in the human brain. Meanwhile the switch from high (0.8 mM) to low (0.1 mM) Mg^2+ increases the electrical firing frequency of neurons because Mg2+ is an inhibitor of excitatory NMDA-type ionotropic glutamate receptors, which account for most of the neuronal firing in this cell culture model. The increase in neuronal firing caused by incubation in 0.1 mM Mg^2+ increases the energy production of neurons and glial cells as reflected in the increase in basal respiration (FIG. 1B and E). After 1 hour of pre-incubation in the Seahorse medium containing the nutrients, the oxygen consumption rate [OCRs] and extracellular acidification rate [ECARs] of the neuroglial culture were measured in the Seahorse assay.
(§1) The oxygen consumption rates (OCRs) and extracellular acidification rates (ECARs) of cells seeded in 96-well plates were monitored in real time at 37° C. in unbuffered Hanks Balanced Salt Solution (HBSS). The OCRs represent foremost mitochondrial respiration, and to a minor extent non-mitochondrial respiration. The ECARs relate foremost to the acidification of the medium with lactate produced through glycolysis and secreted by the cells into the medium (Table 1).
(§2) During the Seahorse run, both the OCRs and ECARs were measured simultaneously at baseline and following the injection of compounds by the Seahorse instrument (Table 1). HBSS was supplemented with glucose from the start and no glucose was injected through the Seahorse instruments. Measurements were repeated three times at baseline and three times after each compound injection.
(§3) After the initial baseline measurement, oligomycin (OM) was injected. OM blocks mitochondrial ATP synthase (complex V) and therefore decreases mitochondrial respiration. The OCRs after OM injection are due to the mitochondrial proton leak. They enable to determine whether the test nutrients impact the proton leak. The difference in OCRs at baseline and after OM injection is the amount of oxygen used for mitochondrial ATP synthesis at baseline. From this difference in OCR, the mitochondrial ATP production rates are calculated.
After OM, uncoupling agent carbonyl cyanide-p- trifluoromethoxyphenyl-hydrazon [FCCP] was injected which collapses the proton gradient across the inner mitochondrial membrane established during respiration and required for ATP synthesis. The cells attempt to restore the proton gradient following FCCP injection by maximizing respiration. […]

[2] = system: primary mouse neuroglial cultures; assay: Cell death by high content imaging (Hoechst/NeuN nuclear shrinkage) after chronic hyperstimulation; format: cell-based; conditions: 1 mM; for dead neuron count (neuron death): FIG. 10F/11F
Protocol: To determine whether pyruvate and citrate protect neurons and glial cells from cell death induced by chronic electrical hyperstimulation. To assess protection from cell death induced by repeated hyperstimulation, primary mouse neuroglial cultures were assayed. Neuroglial cell cultures were prepared and grown until DIV14 as described above. From DIV14 until DIV17 they were switched to NBM containing B27, low (2.5 mM) glucose, and low (0.1 mM) Mg^2+ or high (0.8 mM) Mg^2+. Incubation in low (0.1 mM) Mg^2+ medium increases the neuronal firing rates, thus creating a state of chronic hyperstimulation. The test nutrients (pyruvate or citrate) were supplied through the medium from DIV14 until DIV17. On DIV17, the cell nuclei were stained with the Hoechst dye and co-immunolabelled for NeuN, a protein found only in the nuclei of neurons. The neuronal and non-neuronal cell nuclei were scored for nuclear shrinkage, a hallmark of cell death, by high content imaging.
To assess cell death by high content imaging the cells were fixed on DIV17 in 1% formaldehyde, permeabilized with ethanol and incubated with a rabbit polyclonal IgG antibody against NeuN, a neuron-specific protein localized to the nucleus, followed by detection with a secondary anti-rabbit IgG antibody linked to a red fluorescent label. Neuronal and non-neuronal cell nuclei were then counterstained with the blue fluorescent nuclear dye Hoechst. The nuclei were counted by a high content imager based on signal intensity and size. A cut-off value was applied to exclude objects of low signal intensity considered noise. Then, cut-off values were applied to exclude objects with an area below 30 μM^2 considered cell debris and objects with an area above 300 μM^2 considered cell clumps. A boundary of 60 μM^2 was set to distinguish between nuclei from alive and dead cells. Objects areas of 30 μM^2 to 60 μM^2 were counted as nuclei from dead cells, while object areas of 60 μM^2 to 300 μM^2 were counted as nuclei from alive cells. The counting was done at 20-fold magnification on a fixed number of optical fields per well. The counts of nuclei from dead neurons or dead cells were related to the number of alive neurons or alive cells, respectively, in the same well.
Neuroglial cell cultures were supplemented with 1 mM citrate from DIV14 until DIV17. On DIV17, total cell death and neuron-specific cell death were quantified by high content imaging. The total number of Hoechst positive objects or NeuN positive objects prior to applying cut-off values for the signal intensity and the area size was equal between the different groups (FIG. 10 A, D).

[3] = system: primary rat neuronal-glial cell cultures; assay: Seahorse assay (OCR/ECAR), acute 1 h nutrient pre-incubation, resting or seizure-like conditions; format: cell-based
[4] = system: neuroglial cell cultures; assay: Seahorse assay (OCR/ECAR), acute effects under seizure- and ketogenic diet-like conditions; format: cell-based, rat; conditions: HBSS, 0.1 mM Mg2+, 1 mM glucose, 500 μM bHB, 1 mM pyruvate, 1 mM citrate as added, vs control medium
Protocol: as §1, §2, §3
After OM, uncoupling agent carbonyl cyanide-p- trifluoromethoxyphenyl-hydrazon [FCCP] was injected which collapses the proton gradient across the inner mitochondrial membrane established during respiration and required for ATP synthesis. The cells attempt to restore the proton gradient following FCCP injection by maximizing respiration. The OCRs measured after FCCP injection therefore represent the maximal respiratory capacity of the mitochondria in the sample and enable to determine whether test nutrients impact the maximal respiratory capacity of the mitochondria.
Finally, Antimycin A, a complex III inhibitor, and Rotenone, a complex I inhibitor, were co-injected, both blocking the respiratory chain at different sites to entirely shut down mitochondrial respiration and determine the non-mitochondrial respiration. The latter is necessary to correct all OCRs and obtain the mitochondrial OCRs.
The ECARs were measured simultaneously at baseline and after OM and FCCP injection. The glycolytic ATP production was calculated from the baseline ECARs. The subsequent injection of OM pushed the cells to maximize their glycolytic ATP production to compensate for the loss in mitochondrial ATP production inflicted by OM. The further addition of FCCP drove mitochondrial respiration to a maximum and this eventually led to a further increase in glycolytic rates providing pyruvate into the TCA cycle to sustain maximal respiration. Therefore, the ECARs after FCCP injection were used to determine the maximum glycolytic capacity of the cells.
To assess the effect of citrate and pyruvate under seizure- and ketogenic diet-like conditions a batch of cells was switched one hour prior to the Seahorse run to HBSS medium (which is a nutrient deprived culture medium) containing low (1 mM) glucose, 500 μM bHB and low (0.1 mM) Mg^2+, 1 mM citrate or 1 mM pyruvate (FIG. 6). The ketone p-hydroxybutyrate (bHB) was included during the Seahorse run at a concentration of 500 μM to mimic the nutrient environment of a ketogenic diet. This bHB concentration corresponds to the circulating bHB concentration of a mild ketogenic diet such as the Modified Atkins Diet.
For the Seahorse assay that was run under seizure- and ketogenic diet like-conditions the cells were then incubated in HBSS medium containing low (0.1 mM) Mg^2+ and one of the following additions: • i) 1 mM glucose (control medium), • ii) 500 μM bHB, • iii) 500 μM bHB plus 1 mM citrate, • iv) 500 μM bHB plus 1 mM pyruvate or • v) 500 μM bHB with 1 mM citrate plus 1 mM pyruvate. […]

SMILES	increase in basal respiration ([1]; FIG. 1B)	increase in oligomycin-induced proton leak ([1]; FIG. 1C)	increase in glycolytic rates at baseline ([1]; FIG. 2A)	increase in glycolytic rates after FCCP injection ([1]; FIG. 2C)	increase in dead cell counts from high Mg2+ to low Mg2+ medium ([2]; DIV14-DIV17, chronic hyperstimulation, FIG. 10C/11C) [%]	dead cell counts ([2]; DIV14-DIV17, high (0.8 mM) Mg2+ medium, FIG. 10C/11C) [%]	dead neuron count (neuron death) ([2]; DIV14-DIV17, high Mg2+ medium) [%]	dead cell counts ([2]; DIV14-DIV17, low (0.1 mM) Mg2+ medium, FIG. 10C/11C) [%]	dead neuron count (neuron death) ([2]; DIV14-DIV17, low Mg2+ medium) [%]	increase in total (mitochondrial and glycolytic) ATP production rates ([3]; 0.25 mM and 1 mM pyruvate in low (0.1 mM) Mg2+ medium vs low Mg2+ medium without pyruvate, FIG. 1A)	increase in FCCP-driven maximal respiratory capacity ([3]; 0.25 mM and 1 mM pyruvate in low Mg2+ medium vs low Mg2+ medium without pyruvate, FIG. 1D)	change in basal glycolytic ATP production ([4]; FIG. 6A)	change in total (mitochondrial and glycolytic) ATP production ([4]; FIG. 6A)	change in basal (mitochondrial) respiration ([4]; FIG. 6B)	change in FCCP-driven maximal respiratory capacity ([4]; FIG. 6D)	change in basal glycolysis ([4]; FIG. 7A)	change in FCCP-driven maximal glycolytic capacity ([4]; FIG. 7C)
CC(=O)C(=O)O [pyruvate]	30-40%	10-15%	15-20%	20-30%	~1	~19	−1.5	~20	~1.4	400-500%	200-250%						
CC(O)CC(=O)O (centres unmarked) [bHB, b-hydroxybutyrate]												did not alter	did not impact	did not impact	did not impact	did not alter	did not alter
